# Laboratory results reported in patent publication US9732085B2, “Pyridinone and pyrimidinone derivatives as factor Xia” (ONO PHARMACEUTICAL CO., LTD., priority 2011, dated 2017).
# Structures can show the parent of a compound that is named as a salt. Where two headings read alike, the source gives them in different places.
# Molecular target: Human Factor XIa (Homo sapiens (Human), UniProt P03951)
# Assay: Factor XIa enzyme activity (chromogenic substrate S-2366)
# Format: biochemical
# Details: read-out: In vitro FXIa inhibitory activity IC50
# Experimental: Inhibitory activities of compounds of the present invention against factor XIa, Xa, XIIa, IXa, VIIa, plasma kallikrein or thrombin were evaluated using appropriate purified proteases and synthetic substrates. The rate of hydrolysis of the chromogenic substrate by the relevant protease was continuously measured at 405 nm.
# Inhibitory activity against each enzyme was calculated as % inhibition using the equation described below. % Inhibition=[[(rate without compound)−(rate with compound)](rate without compound)]×100%. Each half maximal inhibitory concentration (IC50) value was determined by plotting the concentration of compound of the invention against the % inhibition. (1-1) Factor XIa Enzyme Activity
# Human Factor XIa (Haematologic Technologies Inc.) activity was measured at an enzyme concentration of 0.1 U/mL in 150 mM NaCl, 5 mM KCl, 1 mg/mL PEG6000, 50 mM HEPES-NaOH (pH7.4) with 300 μM S-2366 (pyroGlu-Pro-Arg-pNA, Chromogenix).
# [1] = human Factor XIa 0.1 U/mL, 300 μM S-2366, pH7.4
# Human Factor XIa, sequence (P03951 388-625): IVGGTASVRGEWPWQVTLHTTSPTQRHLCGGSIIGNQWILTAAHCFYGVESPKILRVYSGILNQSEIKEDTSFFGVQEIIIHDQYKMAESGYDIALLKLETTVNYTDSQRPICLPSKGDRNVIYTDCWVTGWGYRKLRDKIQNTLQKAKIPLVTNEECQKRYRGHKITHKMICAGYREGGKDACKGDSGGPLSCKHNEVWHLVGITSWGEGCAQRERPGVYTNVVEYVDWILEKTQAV
# Human Factor XIa, sequence (P03951 19-387 partner): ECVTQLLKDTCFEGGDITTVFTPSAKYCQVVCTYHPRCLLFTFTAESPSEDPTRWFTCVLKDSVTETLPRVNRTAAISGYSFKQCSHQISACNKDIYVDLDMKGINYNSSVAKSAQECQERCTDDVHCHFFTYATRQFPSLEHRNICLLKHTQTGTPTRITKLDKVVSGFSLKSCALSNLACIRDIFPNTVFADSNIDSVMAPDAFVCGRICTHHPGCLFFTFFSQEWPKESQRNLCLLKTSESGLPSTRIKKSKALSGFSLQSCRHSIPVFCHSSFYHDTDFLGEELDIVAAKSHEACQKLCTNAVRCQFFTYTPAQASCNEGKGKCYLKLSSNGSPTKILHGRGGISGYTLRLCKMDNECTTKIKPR
SMILES,IC50 [1],"IC50 (Table 2, comparison with comparative compounds)"
"COCCOC(=O)Nc1ccc(-c2cnc(C3CCc4cc(-c5cc(Cl)ccc5-n5cnnn5)cc(=O)n43)[nH]2)cc1 (centres unmarked) [129(2), 2-methoxyethyl[4-(2-{7-[5-chloro-2-(1H-tetrazol-1-yl)phenyl]-5-oxo-1,2,3,5-tetrahydro-3-indolizinyl}-1H-imidazol-5-yl)phenyl]carbamate]",4.6 nM,–
"CCC(c1nc(-c2ccc(NC(=O)OC)cc2)c(Cl)[nH]1)n1ccc(-c2cc(Cl)ccc2-n2cnnn2)cc1=O (centres unmarked) [Example 60, methyl{4-[5-chloro-2-(1-{4-[5-chloro-2-(1H-tetrazol-1-yl)phenyl]-2-oxo-1(2H)-pyridinyl}propyl)-1H-imidazol-4-yl]phenyl}carbamate]",7.2 nM,–
"COC(=O)Nc1ccc(-c2cnc(C(C)n3ccc(-c4cc(Cl)ccc4-n4cnnn4)cc3=O)[nH]2)cc1 (centres unmarked) [Example 61, methyl{4-[2-(1-{4-[5-chloro-2-(1H-tetrazol-1-yl)phenyl]-2-oxo-1(2H)-pyridinyl}ethyl)-1H-imidazol-5-yl]phenyl}carbamate]",14 nM,–
"O=C1CCc2cc(-c3c[nH]c(C4CCc5cc(-c6cc(Cl)ccc6-n6cnnn6)cc(=O)n54)n3)ccc2N1 (centres unmarked) [Example 86, 6-(2-{7-[5-chloro-2-(1H-tetrazol-1-yl)phenyl]-5-oxo-1,2,3,5-tetrahydro-3-indolizinyl}-1H-imidazol-4-yl)-3,4-dihydro-2(1H)-quinolinone]",3.9 nM,–
"Nc1ccc(-c2[nH]c([C@@H]3CCc4cc(-c5cc(Cl)ccc5-n5cnnn5)cc(=O)n43)nc2Cl)cn1 [Example 198, (3S)-3-[5-(6-amino-3-pyridinyl)-4-chloro-1H-imidazol-2-yl]-7-[5-chloro-2-(1H-tetrazol-1-yl)phenyl]-2,3-dihydro-5(1H)-indolizinone]",1.5 nM,–
"Nc1ccc(-c2cnc([C@@H]3CCc4cc(-c5cc(Cl)ccc5-n5cnnn5)cc(=O)n43)[nH]2)c(F)n1 [Example 216, (3S)-3-[5-(6-amino-2-fluoro-3-pyridinyl)-1H-imidazol-2-yl]-7-[5-chloro-2-(1H-tetrazol-1-yl)phenyl]-2,3-dihydro-5(1H)-indolizinone]",3.8 nM,–
"COCCC(c1nc(Cl)c(-c2ccc(NC(=O)OC)cc2)[nH]1)n1ccc(-c2cc(Cl)ccc2-n2cnnn2)cc1=O (centres unmarked) [Example 264, methyl{4-[4-chloro-2-(1-{4-[5-chloro-2-(1H-tetrazol-1-yl)phenyl]-2-oxo-1(2H)-pyridinyl]-3-methoxypropyl)-1H-imidazol-5-yl}phenyl}carbamate]",6.1 nM,–
"COC(=O)Nc1ccc(-c2cnc([C@@H]3CCc4cc(-c5cc(C)ccc5-n5cnnn5)cc(=O)n43)[nH]2)cc1 [Example 309, methyl[4-(2-{(3S)-7-[5-methyl-2-(1H-tetrazol-1-yl)phenyl]-5-oxo-1,2,3,5-tetrahydro-3-indolizinyl}-1H-imidazol-5-yl)phenyl]carbamate]",8.3 nM,–
"O=C(O)c1ccc(-c2cnc([C@@H]3CCc4cc(-c5cc(Cl)ccc5-n5cnnn5)cc(=O)n43)[nH]2)s1 [Example 347, 5-(2-{(3S)-7-[5-chloro-2-(1H-tetrazol-1-yl)phenyl]-5-oxo-1,2,3,5-tetrahydro-3-indolizinyl}-1H-imidazol-5-yl)-2-thiophenecarboxylic acid]",4.2 nM,–
"O=C(O)c1ccc(-c2cnc([C@@H]3CCc4c(Cl)c(-c5cc(Cl)ccc5-n5cnnn5)cc(=O)n43)[nH]2)s1 [Example 387, 5-(2-{(3S)-8-chloro-7-[5-chloro-2-(1H-tetrazol-1-yl)phenyl]-5-oxo-1,2,3,5-tetrahydro-3-indolizinyl}-1H-imidazol-5-yl)-2-thiophenecarboxylic acid hydrochloride]",1.6 nM,–
"O=C(O)c1cc(-c2cnc([C@@H]3CCc4c(Cl)c(-c5cc(Cl)ccc5-n5cnnn5)cc(=O)n43)[nH]2)cs1 [Example 391, 4-(2-{(3S)-8-chloro-7-[5-chloro-2-(1H-tetrazol-1-yl)phenyl]-5-oxo-1,2,3,5-tetrahydro-3-indolizinyl}-1H-imidazol-5-yl)-2-thiophenecarboxylic acid trifluoroacetate]",1.1 nM,–
"O=C(O)c1cc(-c2cnc([C@@H]3CCc4nc(-c5cc(Cl)ccc5-n5cnnn5)cc(=O)n43)[nH]2)cs1 [Example 392, 4-(2-{(6S)-2-[5-chloro-2-(1H-tetrazol-1-yl)phenyl]-4-oxo-4,6,7,8-tetrahydropyrrolo[1,2-a]pyrimidin-6-yl}-1H-imidazol-5-yl)-2-thiophenecarboxylic acid hydrochloride]",2.1 nM,–
"O=C(O)c1ccc(-c2[nH]c([C@@H]3CCc4cc(-c5cc(Cl)ccc5-n5cnnn5)cc(=O)n43)nc2F)s1 [Example 399, 5-(2-{(3S)-7-[5-chloro-2-(1H-tetrazol-1-yl)phenyl]-5-oxo-1,2,3,5-tetrahydro-3-indolizinyl}-4-fluoro-1H-imidazol-5-yl)-2-thiophenecarboxylic acid trifluoroacetate]",1.1 nM,–
"Cc1cc(-c2cc(Cl)ccc2-n2cnnn2)cc(=O)n1Cc1ncc(-c2csc(C(=O)O)c2)[nH]1 [Example 400, 4-[2-({4-[5-chloro-2-(1H-tetrazol-1-yl)phenyl]-6-methyl-2-oxo-1(2H)-pyridinyl}methyl)-1H-imidazol-5-yl]-2-thiophenecarboxylic acid hydrochloride]",13 nM,–

# The remaining lines, values ahead:
IC50 [1],"IC50 (Table 2, comparison with comparative compounds)",SMILES
–,> 10000 nM,"COc1cc(Nc2ccc3n(c2=O)C(c2ccc(F)cc2)CCC3)ccc1-n1cnc(C)c1 (centres unmarked) [Comp. Ex 4, reference compound]"
47 nM,–,"COC(=O)Nc1ccc(-c2cnc(C3CCc4cc(-c5cc(Cl)ccc5-n5cnnn5)cc(=O)n43)[nH]2)s1 (centres unmarked) [Example 181, methyl[5-(2-{7-[5-chloro-2-(1H-tetrazol-1-yl)phenyl]-5-oxo-1,2,3,5-tetrahydro-3-indolizinyl}-1H-imidazol-5-yl)-2-thienyl]carbamate]"
2.8 nM,–,"Nc1ccc(-c2cnc([C@@H]3CCc4cc(-c5cc(Cl)ccc5-n5cnnn5)cc(=O)n43)[nH]2)c(Cl)n1 [Example 210, (3S)-3-[5-(6-amino-2-chloro-3-pyridinyl)-1H-imidazol-2-yl]-7-[5-chloro-2-(1H-tetrazol-1-yl)phenyl]-2,3-dihydro-5(1H)-indolizinone]"
11 nM,–,"COC(=O)Nc1ccc(-c2[nH]c([C@@H]3CCc4cc(-c5cc(Cl)ccc5-n5cnnn5)cc(=O)n43)nc2Cl)nc1 [Example 230, methyl[6-(4-chloro-2-{(3S)-7-[5-chloro-2-(1H-tetrazol-1-yl)phenyl]-5-oxo-1,2,3,5-tetrahydro-3-indolizinyl}-1H-imidazol-5-yl)-3-pyridinyl]carbamate]"
4.8 nM,–,"COC(=O)Nc1ccc(-c2nc(Cl)c(C3CCc4cc(-c5cc(Cl)ccc5-n5cnnn5)cc(=O)n43)[nH]2)cc1 (centres unmarked) [Example 241, methyl[4-(4-chloro-5-{7-[5-chloro-2-(1H-tetrazol-1-yl)phenyl]-5-oxo-1,2,3,5-tetrahydro-3-indolizinyl}-1H-imidazol-2-yl)phenyl]carbamate]"
17 nM,–,"COC(=O)Nc1ccc(-c2nnc(C3CCc4cc(-c5cc(Cl)ccc5-n5cnnn5)cc(=O)n43)[nH]2)cc1 (centres unmarked) [Example 245, methyl[4-(5-{7-[5-chloro-2-(1H-tetrazol-1-yl)phenyl]-5-oxo-1,2,3,5-tetrahydro-3-indolizinyl}-4H-1,2,4-triazol-3-yl)phenyl]carbamate]"
11 nM,–,"COC(=O)Nc1ccc(-c2cnc([C@@H]3CSc4cc(-c5cc(Cl)ccc5-n5cnnn5)cc(=O)n43)[nH]2)cc1 [Example 270, methyl[4-(2-{(3R)-7-[5-chloro-2-(1H-tetrazol-1-yl)phenyl]-5-oxo-2,3-dihydro-5H-[1,3]thiazolo[3,2-a]pyridin-3-yl}-1H-imidazol-5-yl)phenyl]carbamate]"
5.7 nM,–,"COC(=O)Nc1ccc(-c2cnc(C(Cc3cccnc3)n3ccc(-c4cc(Cl)ccc4-n4cnnn4)cc3=O)[nH]2)cc1 (centres unmarked) [Example 278, methyl(4-{2-[1-{4-[5-chloro-2-(1H-tetrazol-1-yl)phenyl]-2-oxo-1(2H)-pyridinyl}-2-(3-pyridinyl)ethyl]-1H-imidazol-5-yl}phenyl)carbamate]"
2.5 nM,–,"COC(=O)Nc1ccc(-c2cnc([C@@H]3CCc4cc(-c5cc(Cl)ccc5-n5cc(C#N)nn5)cc(=O)n43)[nH]2)cc1 [Example 290, methyl[4-(2-{(3S)-7-[5-chloro-2-(4-cyano-1H-1,2,3-triazol-1-yl)phenyl]-5-oxo-1,2,3,5-tetrahydro-3-indolizinyl}-1H-imidazol-5-yl)phenyl]carbamate]"
1.4 nM,–,"O=C(O)c1cc(-c2cnc([C@@H]3CCc4cc(-c5cc(Cl)ccc5-n5cnnn5)cc(=O)n43)[nH]2)cs1 [Example 363, 4-(2-{(3S)-7-[5-chloro-2-(1H-tetrazol-1-yl)phenyl]-5-oxo-1,2,3,5-tetrahydro-3-indolizinyl}-1H-imidazol-5-yl)-2-thiophenecarboxylic acid hydrochloride]"
1.6 nM,–,"O=C(O)c1scc(-c2cnc([C@@H]3CCc4cc(-c5cc(Cl)ccc5-n5cnnn5)cc(=O)n43)[nH]2)c1F [Example 834, 4-(2-{(3S)-7-[5-chloro-2-(1H-tetrazol-1-yl)phenyl]-5-oxo-1,2,3,5-tetrahydro-3-indolizinyl}-1H-imidazol-5-yl)-3-fluoro-2-thiophenecarboxylic acid]"
1.7 nM,–,"O=C(O)c1cc(-c2nc(F)c(C3CCc4cc(-c5cc(Cl)ccc5-n5cnnn5)cc(=O)n43)[nH]2)cs1 (centres unmarked) [Example 848, 4-(5-{7-[5-chloro-2-(1H-tetrazol-1-yl)phenyl]-5-oxo-1,2,3,5-tetrahydro-3-indolizinyl}-4-fluoro-1H-imidazol-2-yl)-2-thiophenecarboxylic acid]"
